Source: patent US20230167122A1, “PESTICIDALLY ACTIVE HETEROCYCLIC DERIVATIVES WITH SULFUR CONTAINING SUBSTITUENTS” (SYNGENTA CROP PROTECTION AG, priority 2020, published 2023)

How the values were obtained:
Assay type in all cases: in vivo
[1] = system: Bemisia tabaci (Cotton White Fly); test: Example B1: Activity against Bemisia tabaci (cotton white fly), sprayed cotton leaf discs; details: foliar, 144 h, application rate of 200 ppm, adult white flies on cotton leaf discs, 6 days after incubation
Experimental: Example B1: Activity Against Bemisia tabaci (Cotton White Fly)
Cotton leaf discs were placed on agar in 24-well microtiter plates and sprayed with aqueous test solutions prepared from 10′000 ppm DMSO stock solutions. After drying the leaf discs were infested with adult white flies. The samples were checked for mortality 6 days after incubation.

[2] = system: Plutella xylostella (Diamond Back Moth); test: Example B5: Activity against Plutella xylostella (diamond back moth), eggs, artificial diet; details: 192 h, application rate of 200 ppm, 8 days after infestation, read-out: effect in at least one of the two categories (mortality or growth inhibition)
Experimental: Example B5: Activity Against Plutella xylostella (Diamond Back Moth)
24-well microtiter plates with artificial diet were treated with aqueous test solutions prepared from 10′000 ppm DMSO stock solutions by pipetting. After drying, Plutella eggs were pipetted through a plastic stencil onto a gel blotting paper and the plate was closed with it. The samples were assessed for mortality and growth inhibition in comparison to untreated samples 8 days after infestation.

[3] = system: Tetranychus urticae (Two-Spotted Spider Mite); test: Example B10: Activity against Tetranychus urticae (two-spotted spider mite), sprayed bean leaf discs; details: foliar, 192 h, application rate of 200 ppm, mixed population (mobile stages) on bean leaf discs, 8 days after infestation
Experimental: Example B10: Activity Against Tetranychus urticae (Two-Spotted Spider Mite)
Bean leaf discs on agar in 24-well microtiter plates were sprayed with aqueous test solutions prepared from 10′000 ppm DMSO stock solutions. After drying the leaf discs were infested with a mite population of mixed ages. The samples were assessed for mortality on mixed population (mobile stages) 8 days after infestation.

[4] = system: Euschistus heros (Neotropical Brown Stink Bug); test: Example B3: Activity against Euschistus heros (neotropical brown stink bug), sprayed soybean leaf; details: 120 h, application rate of 200 ppm, N-2 nymphs on soybean leaf, 5 days after infestation, read-out: effect in at least one of the two categories (mortality or growth inhibition)
Experimental: Example B3: Activity Against Euschistus heros (Neotropical Brown Stink Bug)
Soybean leaf on agar in 24-well microtiter plates were sprayed with aqueous test solutions prepared from 10′000 ppm DMSO stock solutions. After drying the leaf were infested with N-2 nymphs. The samples were assessed for mortality and growth inhibition in comparison to untreated samples 5 days after infestation.

[5] = system: Nilaparvata lugens (Brown Plant Hopper); test: Example B11: Activity against Nilaparvata lugens (brown plant hopper), larvicide, feeding/contact; details: 168 h, application rate of 50 ppm, N3 nymphs on sprayed rice plants, 7 days after the treatment
Experimental: Example B11: Activity Against Nilaparvata lugens (Brown Plant Hopper) Larvicide, Feeding/Contact
Rice plants were treated with the diluted test solutions in a spray chamber. After drying plants were infested with ˜20 N3 nymphs. 7 days after the treatment samples were assessed for mortality and growth regulation.

[6] = system: Spodoptera littoralis (Egyptian Cotton Leaf Worm); test: Example B9: Activity against Spodoptera littoralis (Egyptian cotton leaf worm), sprayed cotton leaf discs; details: foliar, 72 h, application rate of 200 ppm, L1 larvae on cotton leaf discs, 3 days after infestation
Experimental: Example B9: Activity Against Spodoptera littoralis (Egyptian Cotton Leaf Worm)
Cotton leaf discs were placed onto agar in 24-well microtiter plates and sprayed with aqueous test solutions prepared from 10′000 ppm DMSO stock solutions. After drying the leaf discs were infested with five L1 larvae. The samples were assessed for mortality, anti-feeding effect, and growth inhibition in comparison to untreated samples 3 days after infestation. Control of Spodoptera littoralis by a test sample is given when at least one of the categories mortality, anti-feedant effect, and growth inhibition is higher than the untreated sample.

[7] = system: Nilaparvata lugens (Brown Plant Hopper); test: Example B12: Activity against Nilaparvata lugens (brown plant hopper), larvicide, systemic into water; details: 168 h, application rate of 12.5 ppm, systemic into nutritive solution, rice plants, N3 nymphs, 7 days after infestation
Experimental: Example B12: Activity Against Nilaparvata lugens (Brown Plant Hopper) Larvicide, Systemic into Water
Rice plants cultivated in a nutritive solution were treated with the diluted test solutions into nourishing cultivation system. 1 day after application plants were infested with ˜20 N3 nymphs. 7 days after infestation samples were assessed for mortality and growth regulation.

[8] = system: Diabrotica balteata (Corn Root Worm); test: Example B2: Activity against Diabrotica balteata (corn root worm), sprayed maize sprouts; details: 96 h, application rate of 200 ppm, L2 larvae on maize sprouts, 4 days after infestation, read-out: effect in at least one of the two categories (mortality or growth inhibition)
Experimental: Example B2: Activity Against Diabrotica balteata (Corn Root Worm)
Maize sprouts placed onto an agar layer in 24-well microtiter plates were treated with aqueous test solutions prepared from 10′000 ppm DMSO stock solutions by spraying. After drying, the plates were infested with L2 larvae (6 to 10 per well). The samples were assessed for mortality and growth inhibition in comparison to untreated samples 4 days after infestation.

[9] = system: Myzus persicae (Green Peach Aphid); test: Example B6: Activity against Myzus persicae (green peach aphid), sprayed sunflower leaf discs; details: foliar, 144 h, application rate of 200 ppm, aphid population of mixed ages on sunflower leaf discs, 6 days after infestation
Experimental: Example B6: Activity Against Myzus persicae (Green Peach Aphid)
(§1) Sunflower leaf discs were placed on agar in a 24-well microtiter plate and sprayed with aqueous test solutions prepared from 10′000 ppm DMSO stock solutions. After drying, the leaf discs were infested with an aphid population of mixed ages. The samples were assessed for mortality 6 days after infestation.

[10] = system: Frankliniella occidentalis (Western Flower Thrips); test: Example B4: Activity against Frankliniella occidentalis (western flower thrips), sprayed sunflower leaf discs; details: foliar, 168 h, application rate of 200 ppm, population of mixed ages on sunflower leaf discs, 7 days after infestation
Experimental: Example B4: Activity Against Frankliniella occidentalis (Western Flower Thrips)
as §1, with “in” for “in a”, “plates” for “plate”, “[…]” for “10′000 ppm”, “drying” for “drying,”, “a Frankliniella” for “an aphid”, “7” for “6”

[11] = system: Plutella xylostella (Diamond Back Moth); test: Example B8: Activity against Plutella xylostella (diamond back moth), L2 larvae, artificial diet; details: 120 h, application rate of 200 ppm, 5 days after infestation, read-out: effect in at least one of the two categories (mortality or growth inhibition)
Experimental: Example B8: Activity Against Plutella xylostella (Diamond Back Moth)
24-well microtiter plates with artificial diet were treated with aqueous test solutions prepared from 10′000 ppm DMSO stock solutions by pipetting. After drying, the plates were infested with L2 larvae (10 to 15 per well). The samples were assessed for mortality and growth inhibition in comparison to untreated samples 5 days after infestation.

[12] = system: Carpocapsa (Cydia) pomonella (Codling Moth); test: Example B15: Activity against Carpocapsa (Cydia) pomonella (codling moth), larvicide, feeding/contact; details: 336 h, application rate of 12.5 ppm, L1 larvae on sprayed diet cubes, 14 days after infestation, read-out: effect in at least one of the two categories (mortality or growth inhibition)
Experimental: Example B15: Activity Against Carpocapsa (Cydia) pomonella (Codling Moth), Larvicide, Feeding/Contact
Diet cubes coated with paraffin were sprayed with diluted test solutions in an application chamber. After drying off the treated cubes (10 replicates) were infested with 1 L1 larvae. Samples were incubated at 26-27° C. and checked 14 days after infestation for mortality and growth inhibition.

[13] = system: Myzus persicae (Green Peach Aphid); test: Example B7: Activity against Myzus persicae (green peach aphid), roots of pea seedlings in test solution; details: 144 h, test rate of 24 ppm, roots of infested pea seedlings in test solution, 6 days
Experimental: Example B7: Activity Against Myzus persicae (Green Peach Aphid)
Roots of pea seedlings infested with an aphid population of mixed ages were placed directly in the aqueous test solutions prepared from 10′000 DMSO stock solutions. The samples were assessed for mortality 6 days after placing seedlings in test solutions.

Cn1c(-c2ncc(OC(C)(C)C#N)cc2S(=O)(=O)CC2CC2)nc2cc(C(F)(F)F)nnc21 [Compound P1, 2-[[5-(cyclopropylmethylsulfonyl)-6-[7-methyl-3-(trifluoromethyl)imidazo[4,5-c]pyridazin-6-yl]-3-pyridyl]oxy]-2-methyl-propanenitrile]
≥ 80%: mortality at 200 ppm [1] | percent effect (mortality or growth inhibition) at 200 ppm [2] | mortality at 200 ppm [3] | percent effect (mortality or growth inhibition) at 200 ppm [4] | mortality at 50 ppm [5] | percent control (mortality, anti-feedant effect or growth inhibition) at 200 ppm [6] | mortality at 12.5 ppm [7] | percent effect (mortality or growth inhibition) at 200 ppm [8] | mortality at 200 ppm [9]

CCS(=O)(=O)c1cc(OC(C)(C)C#N)cnc1-c1cn2ncc(C(F)(F)F)cc2n1 [Compound P9, 2-[[5-ethylsulfonyl-6-[7-(trifluoromethyl)imidazo[1,2-b]pyridazin-2-yl]-3-pyridyl]oxy]-2-methyl-propanenitrile]
≥ 80%: mortality at 200 ppm [1] | mortality at 200 ppm [10] | mortality at 50 ppm [5] | percent control (mortality, anti-feedant effect or growth inhibition) at 200 ppm [6] | mortality at 12.5 ppm [7] | percent effect (mortality or growth inhibition) at 200 ppm [11] | percent effect (mortality or growth inhibition) at 200 ppm [8] | mortality at 200 ppm [9]

CCS(=O)(=O)c1cc(OC(C)(C)C#N)c(C)nc1-c1nc2cc(C(F)(F)F)cnc2n1C [Compound P4, 2-[[5-ethylsulfonyl-2-methyl-6-[3-methyl-6-(trifluoromethyl)imidazo[4,5-b]pyridin-2-yl]-3-pyridyl]oxy]-2-methyl-propanenitrile]
≥ 80%: mortality at 200 ppm [1] | mortality at 200 ppm [3] | percent effect (mortality or growth inhibition) at 200 ppm [4] | percent control (mortality, anti-feedant effect or growth inhibition) at 200 ppm [6] | percent effect (mortality or growth inhibition) at 12.5 ppm [12] | mortality at 12.5 ppm [7] | percent effect (mortality or growth inhibition) at 200 ppm [11] | percent effect (mortality or growth inhibition) at 200 ppm [8] | mortality at 200 ppm [9]

CCS(=O)(=O)c1cc(OC(C)(C)C#N)cnc1-c1nc2cc3c(cc2n1C)OC(F)(F)O3 [Compound P15, 2-[[6-(2,2-difluoro-7-methyl-[1,3]dioxolo[4,5-f]benzimidazol-6-yl)-5-ethylsulfonyl-3-pyridyl]oxy]-2-methyl-propanenitrile]
≥ 80%: mortality at 200 ppm [1] | percent effect (mortality or growth inhibition) at 200 ppm [2] | percent effect (mortality or growth inhibition) at 200 ppm [4] | percent control (mortality, anti-feedant effect or growth inhibition) at 200 ppm [6] | percent effect (mortality or growth inhibition) at 12.5 ppm [12] | percent effect (mortality or growth inhibition) at 200 ppm [8] | mortality at 200 ppm [9]

CCS(=O)(=O)c1cc(OC(C)(C)C#N)ccc1-n1cc2cnc(C(F)(F)F)cc2n1 [Compound P10, 2-[3-ethylsulfonyl-4-[6-(trifluoromethyl)pyrazolo[4,3-c]pyridin-2-yl]phenoxy]-2-methyl-propanenitrile]
≥ 80%: mortality at 200 ppm [1] | mortality at 200 ppm [10] | mortality at 200 ppm [3] | percent effect (mortality or growth inhibition) at 200 ppm [4] | mortality at 50 ppm [5] | percent control (mortality, anti-feedant effect or growth inhibition) at 200 ppm [6] | mortality at 12.5 ppm [7] | percent effect (mortality or growth inhibition) at 200 ppm [11] | percent effect (mortality or growth inhibition) at 200 ppm [8] | mortality at 200 ppm [9]

CCS(=O)(=O)c1cc(OC(C)(C)C#N)cnc1-c1nc2cc3c(cc2o1)OC(F)(F)O3 [Compound P16, 2-[[6-(2,2-difluoro-[1,3]dioxolo[4,5-f][1,3]benzoxazol-6-yl)-5-ethylsulfonyl-3-pyridyl]oxy]-2-methyl-propanenitrile]
≥ 80%: percent effect (mortality or growth inhibition) at 200 ppm [2] | percent effect (mortality or growth inhibition) at 200 ppm [4] | percent control (mortality, anti-feedant effect or growth inhibition) at 200 ppm [6] | percent effect (mortality or growth inhibition) at 12.5 ppm [12] | percent effect (mortality or growth inhibition) at 200 ppm [8] | mortality at 200 ppm [9]

CCS(=O)(=O)c1cc(OC(C)(C)C#N)cnc1-c1nc2cc(C(F)(F)F)nnc2n1C [Compound P2, 2-[[5-ethylsulfonyl-6-[7-methyl-3-(trifluoromethyl)imidazo[4,5-c]pyridazin-6-yl]-3-pyridyl]oxy]-2-methyl-propanenitrile]
≥ 80%: mortality at 200 ppm [1] | mortality at 24 ppm [13] | percent effect (mortality or growth inhibition) at 200 ppm [4] | mortality at 50 ppm [5] | percent control (mortality, anti-feedant effect or growth inhibition) at 200 ppm [6] | mortality at 12.5 ppm [7] | percent effect (mortality or growth inhibition) at 200 ppm [11] | percent effect (mortality or growth inhibition) at 200 ppm [8] | mortality at 200 ppm [9]

CCS(=O)(=O)c1cc(OC(C)(C)C#N)cnc1-c1cn2ccc(C(F)(F)F)cc2n1 [Compound P8, 2-[[5-ethylsulfonyl-6-[7-(trifluoromethyl)imidazo[1,2-a]pyridin-2-yl]-3-pyridyl]oxy]-2-methyl-propanenitrile]
≥ 80%: mortality at 200 ppm [10] | mortality at 200 ppm [3] | percent effect (mortality or growth inhibition) at 200 ppm [4] | percent control (mortality, anti-feedant effect or growth inhibition) at 200 ppm [6] | percent effect (mortality or growth inhibition) at 200 ppm [11] | percent effect (mortality or growth inhibition) at 200 ppm [8] | mortality at 200 ppm [9]
